The values that follow come from ChEMBL document CHEMBL1150716, “Cytotoxic flavonols from Gutierrezia microcephala” (1987).

For this assay, the system named is P388. Nature of the assay: Cytotoxicity against mouse P388 cells. The conditions noted are these: read-out: ED50 (the source's name). It is filed as functional.

Each structure is given as a SMILES string. In brackets after ≈: the same amount, converted by molar mass.

As to `COc1cc(O)c2c(=O)c(OC)c(-c3ccc(O)c(O)c3)oc2c1`, the EC50 came to 3.2 µg/mL (≈ 9.69 µM). As to `COc1cc(-c2oc3cc(O)cc(O)c3c(=O)c2OC)ccc1O` [3,3'-O-DIMETHYLQUERCETIN], the EC50 stood at 1.7 µg/mL (≈ 5.15 µM).
